For data set [1], the system named is HBV genome. The data set can be described thus: IC 50 of HBV siRNA duplexes (Table A). The following applies: siRNA duplex. Details: species or system Hepatitis B virus.
Data set [2] relates to HBV DNA. The data set can be described thus: HBV DNA in culture supernatants of HBV-infected PHH by qPCR, single agents and double combinations (Examples 1-4). The settings on record: Hepatitis B virus; for inhibition at 0.005 µM / inhibition at 0.015 µM / inhibition at 0.044 µM / inhibition at 0.133 µM / inhibition at 0.4 µM: HBV DNA, (V) 0.00 μg/mL; for inhibition at 0.005 µM: (VI) 0.005 μM; for inhibition at 0.015 µM: (VI) 0.015 μM; for inhibition at 0.044 µM: (VI) 0.044 μM; for inhibition at 0.133 µM: (VI) 0.133 μM; for inhibition at 0.4 µM: (VI) 0.400 μM; for EC50: HBV DNA endpoint, PHH, determined in an earlier separate experiment, read-out: EC50; for inhibition at 0.05 µM: (VII) 0.05 μM alone; for inhibition at 0.15 µM: (VII) 0.15 μM alone; for inhibition at 0.44 µM: (VII) 0.44 μM alone; for inhibition at 1.33 µM: (VII) 1.33 μM alone; for inhibition at 4 µM: (VII) 4.00 μM alone. Format: cell-based, HBV genotype D; primary human hepatocytes. As to the method:
(§1) The day PHH seeding date was defined as day 0.
(§2) The PHH were infected with 400 HBV GE/cell of HBV genotype D type HBV on day 1.
(§3) The test articles were further diluted with the culture medium to the final test concentrations.
(§4) All the test articles were further diluted 100 times with the culture medium. The final concentration of DMSO in the culture medium was […].
(§5) The compounds were tested at 7 concentrations, 3-fold dilution, in triplicate.
(§6) Four two-way combinations were performed on a 5×5 matrix, in triplicate plates. Transfection reagent was present in all wells. The culture medium containing the articles were refreshed every 1 or 2 days.
DNA in the culture supernatants harvested on days 8 was isolated with QIAamp 96 DNA Blood Kit (Qiagen-51162). For each sample, 100 μl of each culture supernatant was used to extract DNA. The DNA was eluted with 180 μl of AE. HBV DNA in the culture supernatants was quantified by quatitative PCR using primers and probes outlined in Table 3. Percent inhibition of HBV DNA was calculated with the formula below:
% Inh. HBV DNA=[1−value of sample/AVG. value of Medium control]×100.
(§7) Results of double combination studies were analyzed using MacSynergy II software (Prichard and Shipman, 1992).

For data set [3], the system named is HBsAg. The data set can be described thus: microbe, parasite or virus in culture. The data set is classed as cell-based, HBV genotype D; primary human hepatocytes. The following applies: Hepatitis B virus; for inhibition at 0.005 µM / inhibition at 0.015 µM / inhibition at 0.044 µM / inhibition at 0.133 µM / inhibition at 0.4 µM: read-out: AVERAGE % INHIBITION, HBsAg, (V) 0.00 μg/mL; for inhibition at 0.005 µM: (VI) 0.005 μM; for inhibition at 0.015 µM: (VI) 0.015 μM; for inhibition at 0.044 µM: (VI) 0.044 μM; for inhibition at 0.133 µM: (VI) 0.133 μM; for inhibition at 0.4 µM: (VI) 0.400 μM; for inhibition at 0.05 µM: (VII) 0.05 μM alone; for inhibition at 0.15 µM: (VII) 0.15 μM alone; for inhibition at 0.44 µM: (VII) 0.44 μM alone; for inhibition at 1.33 µM: (VII) 1.33 μM alone; for inhibition at 4 µM: (VII) 4.00 μM alone. As to the method:
as §1, §2, §3, §4, §5, §6
HBsAg in the culture supernatants harvested on days 8 was measured using the HBsAg/ELISA kit (Autobio) according to the manual. The samples were diluted with PBS to get the signal in the range of the standard curve. Percent inhibition of HBsAg was calculated with the formula below:
% Inh. HBsAg=[1−HBsAg quantity of sample/[…] of DMSO control]×100
as §7

The mark [4] stands for this setting: read-out: AVERAGE % INHIBITION, Exp 1.
[5] abbreviates: read-out: AVERAGE % INHIBITION, Exp 2.

This note sets out measurements from patent US20220168430A1, “THERAPEUTIC METHODS FOR TREATING HEPATITIS B” (priority 2019, published 2022).

Where two headings read alike, the source gives them in different places.

With “2m: "double stranded siRNA molecules selected from the group consisting of 1m, 2m, 3m ... 15m" (sense GCUCAGUUUACUAGUGCCAUU; antisense UUCGAGUCAAAUGAUCACGGU; chemistry not fully specified; one strand is listed 3' to 5') [Compound 2m]”, the IC50 in data set [1] stood at 0.37 nM.

`COCCCOc1cc2c(nc1OC)-c1cc(=O)c(C(=O)O)cn1[C@H](C(C)C)C2` [(VI)]: the inhibition at 0.005 µM in data set [2] (Experiment 1) was determined as 0.64%; in data set [2] (Experiment 2) it was 7.21%; in data set [3] (Experiment 1), 19.1%; in data set [3] (Experiment 2), 11.9%. The inhibition at 0.015 µM was 6.77% in data set [2] (Experiment 1), 13.7% in data set [2] (Experiment 2), 43.1% in data set [3] (Experiment 1) and 38.1% in data set [3] (Experiment 2). The inhibition at 0.044 µM in data set [2] (Experiment 1) turned out to be 10.9%; in data set [2] (Experiment 2), 19.3%; in data set [3] (Experiment 1) it was 62.2%; in data set [3] (Experiment 2), 56.7%. The inhibition at 0.133 µM in data set [2] (Experiment 1) came out at 26.7%; in data set [2] (Experiment 2), 12.8%; in data set [3] (Experiment 1), 74%; in data set [3] (Experiment 2), 69.7%. The inhibition at 0.4 µM in data set [2] (Experiment 1) was 21.8%; in data set [2] (Experiment 2), 27.1%; in data set [3] (Experiment 1), 81%; in data set [3] (Experiment 2) it was 77.4%. Also, the EC50 worked out at 6 nM in data set [2] and 13 nM in data set [3].

Regarding “4m: "double stranded siRNA molecules selected from the group consisting of 1m, 2m, 3m ... 15m" (sense GCUCAGUUUACUAGUGCCAUU; antisense UUCGAGUCAAAUGAUCACGGU; chemistry not fully specified; one strand is listed 3' to 5') [Compound 4m]”, in data set [1], the IC50 amounted to 0.31 nM.

In turn, “9m: "double stranded siRNA molecules selected from the group consisting of 1m, 2m, 3m ... 15m" (sense AGGUAUGUUGCCCGUUUGUUU; antisense UUUCCAUACAACGGGCAAACA; chemistry not fully specified; one strand is listed 3' to 5') [Compound 9m]” came in with an IC50 in data set [1] of 0.13 nM.

Take `Cn1cnc(COC(=O)N[C@H]2CCc3c(C(=O)Nc4ccc(F)c(Cl)c4)ccc(F)c32)n1` [(VII)]: in data set [2] (Exp 1), the inhibition at 0.05 µM was -22.6%, the inhibition at 0.15 µM came to 28.7%, the inhibition at 0.44 µM came out at 50% and the inhibition at 1.33 µM worked out at 53.9%. Also, in data set [2] (Exp 1), the inhibition at 4 µM was determined as 56.2%. For the same compound, in data set [2] (Exp 2), the inhibition at 0.05 µM is -0.21%, the inhibition at 0.15 µM is 16.1%, the inhibition at 0.44 µM was found to be 31.2% and the inhibition at 1.33 µM was found to be 32.9%. The inhibition at 4 µM in data set [2] (Exp 2) came out at 41.3%. For the same compound, in data set [2], the half-maximal effective concentration (EC50) was 76 nM. In addition, the EC50 in data set [3] is above 4000 nM. Moreover, in data set [3] (setting [4]), the inhibition at 0.05 µM is -14.1%, the inhibition at 0.15 µM is -5.43%, the inhibition at 0.44 µM is -9.81% and the inhibition at 1.33 µM came out at 29.9%. Also, in data set [3] (setting [4]), the inhibition at 4 µM stood at 49.6%. For the same compound, in data set [3] (setting [5]), the inhibition at 0.05 µM is -3.42%, the inhibition at 0.15 µM was -8.51%, the inhibition at 0.44 µM is 1.73% and the inhibition at 1.33 µM was 29.4%. Further, in data set [3] (setting [5]), the inhibition at 4 µM worked out at 48.7%.

In data set [1], “6m: "double stranded siRNA molecules selected from the group consisting of 1m, 2m, 3m ... 15m" (sense CUGGCUCAGUUUACUAGUGUU; antisense UUGACCGAGUCAAAUGAUCAC; chemistry not fully specified; one strand is listed 3' to 5') [Compound 6m]” registered an IC50 of 0.05 nM.

Turning to “14m: "double stranded siRNA molecules selected from the group consisting of 1m, 2m, 3m ... 15m" (sense GCUCAGUUUACUAGUGCCAUU; antisense UUCGAGUCAAAUGAUCACGGU; chemistry not fully specified; one strand is listed 3' to 5') [Compound 14m]”, in data set [1], 0.16 nM corresponded to half-maximal inhibition (IC50).

In data set [1], “5m: "double stranded siRNA molecules selected from the group consisting of 1m, 2m, 3m ... 15m" (sense CCGUGUGCACUUCGCUUCAUU; antisense UUGGCACACGUGAAGCGAAGU; chemistry not fully specified) [Compound 5m]” gave an IC50 of 0.06 nM.

In data set [1], “10m: "double stranded siRNA molecules selected from the group consisting of 1m, 2m, 3m ... 15m" (sense GCCGAUCCAUACUGCGGAAUU; antisense UUCGGCUAGGUAUGACGCCUU; chemistry not fully specified; one strand is listed 3' to 5') [Compound 10m]” showed an IC50 of 0.34 nM.

In data set [1], “13m: "double stranded siRNA molecules selected from the group consisting of 1m, 2m, 3m ... 15m" (sense GCCGAUCCAUACUGCGGAAUU; antisense UUCGGCUAGGUAUGACGCCUU; chemistry not fully specified; one strand is listed 3' to 5') [Compound 13m]” displayed an IC50 of 0.2 nM.

For “12m: "double stranded siRNA molecules selected from the group consisting of 1m, 2m, 3m ... 15m" (sense GCCGAUCCAUACUGCGGAAUU; antisense UUCGGCUAGGUAUGACGCCUU; chemistry not fully specified; one strand is listed 3' to 5') [Compound 12m]”, in data set [1], half-maximal inhibition (IC50) was put at 0.16 nM.
